Columns and labels:
recombinant CETP = biological target: T1, recombinant CETP (Homo sapiens, UniProt P11597); test: In vitro CETP inhibitory assay (BODIPY-CE fluorescence assay, CETP RP Activity Assay Kit); assay type: biochemical; conditions: for IC50: CETP inhibition, eight-point titration, each concentration tested three times
T1 construct: purchased Roar, New York, NY, USA RB-RPAK
T1 sequence (P11597 18-493): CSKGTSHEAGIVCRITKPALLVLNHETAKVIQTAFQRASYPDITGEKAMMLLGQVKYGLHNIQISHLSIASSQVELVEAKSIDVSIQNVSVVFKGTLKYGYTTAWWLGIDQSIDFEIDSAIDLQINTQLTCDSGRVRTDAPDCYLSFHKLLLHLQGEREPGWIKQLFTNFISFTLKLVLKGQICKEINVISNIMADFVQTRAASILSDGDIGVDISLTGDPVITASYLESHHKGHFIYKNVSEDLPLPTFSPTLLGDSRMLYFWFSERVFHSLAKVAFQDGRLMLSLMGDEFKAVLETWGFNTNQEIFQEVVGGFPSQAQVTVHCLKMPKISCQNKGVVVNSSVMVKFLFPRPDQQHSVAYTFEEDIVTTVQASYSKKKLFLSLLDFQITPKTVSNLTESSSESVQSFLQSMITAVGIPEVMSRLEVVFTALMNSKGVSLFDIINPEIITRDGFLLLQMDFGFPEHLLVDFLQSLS
Experimental: The IC50 was determined from a curve fit of the data with each concentration tested three times.

Row | IC50 (recombinant CETP) [µM] | melting point [°C] | decrease of activity on replacing the nitro group at the 4-position of ring B (recombinant CETP; compared with the 4-nitro compound (30)) [fold] | Structure (SMILES)
1 | 25.7 ± 0.41 | 81 to 82.4 |  | Fc1ccc(CN(Cc2ncc(-c3ccccc3)o2)c2cccc(Oc3ccccc3)c2)cc1 [Compound 17a, N-(4-Fluorobenzyl)-3-phenoxy-N-((5-phenyloxazol-2-yl)methyl)aniline]
2 | 10.6 ± 0.32 | 90.5 to 92.5 |  | Fc1ccc(CN(Cc2ncc(-c3ccccc3)s2)c2cccc(Oc3ccccc3)c2)cc1 [Compound 17b, N-(4-Fluorobenzyl)-3-phenoxy-N-((5-phenylthiazol-2-yl)methyl)aniline]
3 | 17.1 ± 0.44 |  |  | Cc1cc(CN(Cc2ccc(F)cc2)c2cccc(Oc3ccccc3)c2)nn1-c1ccccc1 [Compound 17c, N-(4-Fluorobenzyl)-N-((5-methyl-1-phenyl-1H-pyrazol-3-yl)methyl)-3-phenoxyaniline]
4 | 9.03 ± 0.21 |  |  | Fc1ccc(CN(Cc2nc(-c3ccccc3)cs2)c2cccc(Oc3ccccc3)c2)cc1 [Compound 17d, N-(4-Fluorobenzyl)-3-phenoxy-N-((4-phenylthiazol-2-yl)methyl)aniline]
5 | 26.9 ± 0.35 | 97.3 to 98.2 |  | Fc1ccc(CN(Cc2nnc(-c3ccccc3)o2)c2cccc(Oc3ccccc3)c2)cc1 [Compound 17e, N-(4-Fluorobenzyl)-3-phenoxy-N-((5-phenyl-1,3,4-oxadiazol-2-yl)methyl)aniline]
6 | 13.7 ± 0.63 |  |  | Fc1ccc(CN(Cc2nc3ccccc3[nH]2)c2cccc(Oc3ccccc3)c2)cc1 [Compound 17f, N-((1H-Benzo[d]imidazol-2-yl)methyl)-N-(4-fluorobenzyl)-3-phenoxyaniline]
7 | 15.2 ± 0.52 |  |  | Fc1ccc(CN(Cc2nc3ccccc3o2)c2cccc(Oc3ccccc3)c2)cc1 [Compound 17g, N-(Benzo[d]oxazol-2-ylmethyl)-N-(4-fluorobenzyl)-3-phenoxyaniline]
8 | 13.96 ± 0.11 |  |  | COc1cccc(N(Cc2ccc(F)cc2)Cc2nc(-c3ccccc3)cs2)c1 [Compound 21, N-(4-Fluorobenzyl)-3-methoxy-N-((4-phenylthiazol-2-yl)methyl)aniline]
9 | 3.58 ± 0.03 |  |  | COc1ccc(N(Cc2ccc(F)cc2)Cc2nc(-c3ccccc3)cs2)cc1OC [Compound 22, N-(4-Fluorobenzyl)-3,4-dimethoxy-N-((4-phenylthiazol-2-yl)methyl)aniline]
10 | 31.69 ± 0.25 |  |  | O=[N+]([O-])c1ccc(-c2csc(CN(Cc3ccc(F)cc3)c3cccc(OC(F)(F)F)c3)n2)cc1 [Compound 23, N-(4-Fluorobenzyl)-N-((4-(4-nitrophenyl)thiazol-2-yl)methyl)-3-(trifluoromethoxy)aniline]
11 | 13.8 ± 0.14 | 107 to 108.4 |  | O=[N+]([O-])c1ccc(-c2csc(CN(Cc3ccc(F)cc3)c3cccc(C(F)(F)F)c3)n2)cc1 [Compound 24, N-(4-Fluorobenzyl)-N-((4-(4-nitrophenyl)thiazol-2-yl)methyl)-3-(trifluoromethyl)aniline]
12 | 9.55 ± 0.08 | 164.5 to 166.2 |  | O=[N+]([O-])c1ccc(-c2csc(CN(Cc3ccc(F)cc3)c3ccc(-c4ccccc4)cc3)n2)cc1 [Compound 25, N-(4-Fluorobenzyl)-N-((4-(4-nitrophenyl)thiazol-2-yl)methyl)-[1,1′-biphenyl]-4-amine]
13 | 8.98 ± 0.05 | 149.5 to 150.8 |  | O=[N+]([O-])c1ccc(-c2csc(CN(Cc3ccc(F)cc3)c3cccc(-c4ccccc4)c3)n2)cc1 [Compound 26, N-(4-Fluorobenzyl)-N-((4-(4-nitrophenyl)thiazol-2-yl)methyl)-[1,1′-biphenyl]-3-amine]
14 | 1.02 ± 0.01 |  |  | O=[N+]([O-])c1ccc(-c2csc(CN(Cc3ccc(F)cc3)c3ccccc3-c3ccccc3)n2)cc1 [Compound 27, N-(4-Fluorobenzyl)-N-((4-(4-nitrophenyl)thiazol-2-yl)methyl)-[1,1′-biphenyl]-2-amine]
15 | 7.77 ± 0.13 | 143.9 to 148.8 |  | O=[N+]([O-])c1ccc(-c2csc(CN(Cc3ccc(F)cc3)c3cccc(-c4cccs4)c3)n2)cc1 [Compound 28, N-(4-Fluorobenzyl)-N-((4-(4-nitrophenyl)thiazol-2-yl)methyl)-3-(thiophen-2-yl)aniline]
16 | 24.56 ± 0.22 |  |  | Cn1nccc1-c1cccc(N(Cc2ccc(F)cc2)Cc2nc(-c3ccc([N+](=O)[O-])cc3)cs2)c1 [Compound 29, N-(4-Fluorobenzyl)-3-(1-methyl-1H-pyrazol-5-yl)-N-((4-(4-nitrophenyl)thiazol-2-yl)methyl)aniline]

Row | IC50 (recombinant CETP) [µM] | melting point [°C] | decrease of activity on replacing the nitro group at the 4-position of ring B (recombinant CETP; compared with the 4-nitro compound (30)) [fold] | Structure (SMILES)
17 | 2.46 ± 0.06 |  |  | COc1ccc(N(Cc2ccc(F)cc2)Cc2nc(-c3ccc(F)cc3)cs2)cc1OC [Compound 31, N-(4-Fluorobenzyl)-N-((4-(4-fluorophenyl)thiazol-2-yl)methyl)-3,4-dimethoxyaniline]
18 | 1.5 ± 0.03 | 105.4 to 106.6 |  | COc1ccc(N(Cc2ccc(F)cc2)Cc2nc(-c3ccc(C#N)cc3)cs2)cc1OC [Compound 33, 4-(2-(((3,4-Dimethoxyphenyl)(4-fluorobenzyl)amino)methyl)thiazol-4-yl)benzonitrile]
19 | 1.38 ± 0.07 | 120.5 to 121.6 |  | COc1ccc(N(Cc2ccc(F)cc2)Cc2nc(-c3cccc([N+](=O)[O-])c3)cs2)cc1OC [Compound 34, N-(4-Fluorobenzyl)-3,4-dimethoxy-N-((4-(3-nitrophenyl)thiazol-2-yl)methyl)aniline]
20 | 6.36 ± 0.12 |  |  | COc1ccc(N(Cc2ccc(F)cc2)Cc2nc(-c3ccccc3[N+](=O)[O-])cs2)cc1OC [Compound 35, N-(4-Fluorobenzyl)-3,4-dimethoxy-N-((4-(2-nitrophenyl)thiazol-2-yl)methyl)aniline]
21 | 8.96 ± 0.15 |  |  | COc1ccc(N(Cc2ccc(F)cc2)Cc2nc(-c3ccc(Br)cc3)cs2)cc1OC [Compound 36, N-((4-(4-Bromophenyl)thiazol-2-yl)methyl)-N-(4-fluorobenzyl)-3,4-dimethoxyaniline]
22 | 4.02 ± 0.05 | 126.1 to 130.3 |  | COc1ccc(N(Cc2ccc(F)cc2)Cc2nc(-c3ccc(-c4cnn(C)c4)cc3)cs2)cc1OC [Compound 37, N-(4-Fluorobenzyl)-3,4-dimethoxy-N-((4-(4-(1-methyl-1H-pyrazol-4-yl)phenyl)thiazol-2-yl)methyl)aniline]
23 | 7.57 ± 0.1 | 69 to 69.8 |  | COc1ccc(N(Cc2ccc(F)cc2)Cc2nc(-c3ccc(-c4c(C)noc4C)cc3)cs2)cc1OC [Compound 38, N-((4-(4-(3,5-Dimethylisoxazol-4-yl)phenyl)thiazol-2-yl)methyl)-N-(4-fluorobenzyl)-3,4-dimethoxyaniline]
24 | 6.38 ± 0.09 | 102.4 to 103.3 |  | COc1ccc(N(Cc2ccc(F)cc2)Cc2nc(-c3ccc(-c4ccnn4C)cc3)cs2)cc1OC [Compound 39, N-(4-Fluorobenzyl)-3,4-dimethoxy-N-((4-(4-(1-methyl-1H-pyrazol-5-yl)phenyl)thiazol-2-yl)methyl)aniline]
25 | 6.03 ± 0.04 | 115.8 to 119 |  | COc1ccc(N(Cc2ccc(F)cc2)Cc2nc(-c3ccc(-c4cccs4)cc3)cs2)cc1OC [Compound 40, N-(4-Fluorobenzyl)-3,4-dimethoxy-N-((4-(4-(thiophen-2-yl)phenyl)thiazol-2-yl)methyl)aniline]
26 | 3.51 ± 0.06 |  |  | COc1ccc(N(Cc2ccc(F)cc2)Cc2nc(-c3ccc4ccccc4c3)cs2)cc1OC [Compound 41, N-(4-Fluorobenzyl)-3,4-dimethoxy-N-((4-(naphthalen-2-yl)thiazol-2-yl)methyl)aniline]
27 | 14 ± 0.21 | 105.3 to 107 |  | COc1ccc(N(Cc2ccc(F)cc2)Cc2nc(-c3ccc(C)cc3)cs2)cc1OC [Compound 42, N-(4-Fluorobenzyl)-3,4-dimethoxy-N-((4-(p-tolyl)thiazol-2-yl)methyl)aniline]
28 | 11 ± 0.31 | 76.3 to 79 |  | COc1ccc(-c2csc(CN(Cc3ccc(F)cc3)c3ccc(OC)c(OC)c3)n2)cc1 [Compound 43, N-(4-Fluorobenzyl)-3,4-dimethoxy-N-((4-(4-methoxyphenyl)thiazol-2-yl)methyl)aniline]
29 | 16.7 ± 0.23 | 144.7 to 146.2 |  | COc1ccc(N(Cc2ccc(F)cc2)Cc2nc(-c3ccc(N)cc3)cs2)cc1OC [Compound 44, N-((4-(4-Aminophenyl)thiazol-2-yl)methyl)-N-(4-fluorobenzyl)-3,4-dimethoxyaniline]
30 | 15.3 ± 0.17 | 143.6 to 145.8 |  | COc1ccc(N(Cc2ccc(F)cc2)Cc2nc(-c3ccc(NC(=O)C(F)(F)F)cc3)cs2)cc1OC [Compound 45, N-(4-(2-(((3,4-Dimethoxyphenyl)(4-fluorobenzyl)amino)methyl)thiazol-4-yl)phenyl)-2,2,2-trifluoroacetamide]
31 | > 50 | 134.6 to 137 |  | COc1ccc(N(Cc2ccc(F)cc2)Cc2nc(-c3ccc(NC(C)=O)cc3)cs2)cc1OC [Compound 46, N-(4-(2-(((3,4-Dimethoxyphenyl)(4-fluorobenzyl)amino)methyl)thiazol-4-yl)phenyl)acetamide]
32 | 8.4 ± 0.04 |  | ~10 | CCOC(=O)CCCOc1ccc(-c2csc(CN(Cc3ccc(F)cc3)c3ccc(OC)c(OC)c3)n2)cc1 [Compound 48, Ethyl-4-(4-(2-(((3,4-dimethoxyphenyl)(4-fluorobenzyl)amino)methyl)thiazol-4-yl)phenoxy)butanoate]

Source: paper PMC6150381, “Design, Synthesis, and Biological Evaluation of N,N-Disubstituted-4-arylthiazole-2-methylamine Derivatives as Cholesteryl Ester Transfer Inhibitors” (Molecules : A Journal of Synthetic Chemistry and Natural …, 2017)
